According to ChEMBL document CHEMBL6078723, “Novel steroidal β-carboline derivatives as promising antibacterial candidates against methicillin-resistant Staphylococcus aureus” (Eur J Med Chem, 2025):
Activity calls are given as the source filed them. The rule behind the calls is not given here.

Assays:
Staphylococcus aureus [1] = experiment: Antibacterial activity against Staphylococcus aureus CGMCC1.8721; format: functional
Staphylococcus aureus [2] = experiment: Antibacterial activity against methicillin-resistant Staphylococcus aureus CGMCC1.12409; format: functional
Staphylococcus aureus [3] = experiment: Bactericidal activity against methicillin-resistant Staphylococcus aureus ATCC 43300 by CLSI based method; format: functional
Staphylococcus aureus [4] = experiment: Bactericidal activity against methicillin-resistant Staphylococcus aureus ATCC 33591 by CLSI based method; format: functional
HeLa = experiment: Cytotoxicity against human HeLa cells at 40 uM by CCK8 assay relative to control; format: toxicity, cell-based
[5] = Hemolytic activity in rabbit RBC; format: toxicity, cell-based, Oryctolagus cuniculus, Erythrocyte; settings: rabbit red blood cells
Staphylococcus aureus [6] = experiment: Bactericidal activity against Staphylococcus aureus CGMCC1.8721 at 4 to 8 times MIC incubated for 0.5 to 1 hr by time kill assay relative to control; format: functional; settings: time 0.5-1 hrs
Staphylococcus aureus [7] = experiment: Induction of bacterial regrowth of Staphylococcus aureus CGMCC1.8721 at 4 to 8 times MIC measured after 24 hrs by time kill assay; format: functional, organism-based
Staphylococcus aureus [8] = experiment: Antibacterial activity against Staphylococcus aureus CGMCC1.8721 in presence of Na+ (reference value: 0.5 ug/ml); format: functional
Staphylococcus aureus [9] = experiment: Antibacterial activity against Staphylococcus aureus CGMCC1.8721 in presence of Zn2+ (reference value: 0.5 ug/ml); format: functional
Staphylococcus aureus [10] = experiment: Antibacterial activity against Staphylococcus aureus CGMCC1.8721 in presence of Fe2+ (reference value: 0.5 ug/ml); format: functional
Staphylococcus aureus [11] = experiment: Antibacterial activity against Staphylococcus aureus CGMCC1.8721 in presence of Fe3+ (reference value: 0.5 ug/ml); format: functional
Staphylococcus aureus [12] = experiment: Antibacterial activity against Staphylococcus aureus CGMCC1.8721 at 36.5 degreeC (reference value: 0.5 ug/ml); format: functional
Staphylococcus aureus [13] = experiment: Antibacterial activity against methicillin-resistant Staphylococcus aureus ATCC 43300 in presence of K+ (reference value: 0.5 ug/ml); format: functional
Staphylococcus aureus [14] = experiment: Antibacterial activity against methicillin-resistant Staphylococcus aureus ATCC 43300 in presence of Ca2+ (reference value: 0.5 ug/ml); format: functional
Staphylococcus aureus [15] = experiment: Antibacterial activity against methicillin-resistant Staphylococcus aureus ATCC 43300 in presence of Mg2+ (reference value: 0.5 ug/ml); format: functional
Staphylococcus aureus [16] = experiment: Antibacterial activity against methicillin-resistant Staphylococcus aureus ATCC 43300 in presence of Zn2+ (reference value: 0.5 ug/ml); format: functional
Staphylococcus aureus [17] = experiment: Antibacterial activity against methicillin-resistant Staphylococcus aureus ATCC 43300 in presence of Fe3+ (reference value: 0.5 ug/ml); format: functional
Staphylococcus aureus [18] = experiment: Antibacterial activity against methicillin-resistant Staphylococcus aureus ATCC 43300 in presence of H2PO4- (reference value: 0.5 ug/ml); format: functional
Staphylococcus aureus [19] = experiment: Antibacterial activity against methicillin-resistant Staphylococcus aureus ATCC 43300 at 37.5 degreeC (reference value: 0.5 ug/ml); format: functional
Staphylococcus aureus [20] = experiment: Antibacterial activity against methicillin-resistant Staphylococcus aureus CGMCC1.12409 in presence of Na+ (reference value: 0.5 ug/ml); format: functional
Staphylococcus aureus [21] = experiment: Antibacterial activity against methicillin-resistant Staphylococcus aureus CGMCC1.12409 in presence of K+ (reference value: 0.5 ug/ml); format: functional
Staphylococcus aureus [22] = experiment: Antibacterial activity against methicillin-resistant Staphylococcus aureus CGMCC1.12409 in presence of Fe3+ (reference value: 0.5 ug/ml); format: functional
Staphylococcus aureus [23] = experiment: Antibacterial activity against methicillin-resistant Staphylococcus aureus CGMCC1.12409 in presence of H2PO4- (reference value: 0.5 ug/ml); format: functional
Staphylococcus aureus [24] = experiment: Antibacterial activity against methicillin-resistant Staphylococcus aureus CGMCC1.12409 at pH 6.5 (reference value: 0.5 ug/ml); format: functional
Staphylococcus aureus [25] = experiment: Antibacterial activity against methicillin-resistant Staphylococcus aureus ATCC 33591 in presence of Zn2+ (reference value: 1 ug/ml); format: functional
Staphylococcus aureus [26] = experiment: Antibacterial activity against methicillin-resistant Staphylococcus aureus ATCC 33591 in presence of Fe2+ (reference value: 1 ug/ml); format: functional
Staphylococcus aureus [27] = experiment: Antibacterial activity against methicillin-resistant Staphylococcus aureus ATCC 33591 in presence of Fe3+ (reference value: 1 ug/ml); format: functional
Staphylococcus aureus [28] = experiment: Antibacterial activity against methicillin-resistant Staphylococcus aureus ATCC 33591 in presence of H2PO4- (reference value: 1 ug/ml); format: functional
Staphylococcus aureus [29] = experiment: Antibacterial activity against methicillin-resistant Staphylococcus aureus ATCC 33591 at pH 6.5 (reference value: 1 ug/ml); format: functional
Staphylococcus aureus [30] = experiment: Antibacterial activity against methicillin-resistant Staphylococcus aureus ATCC 33591 at 36.5 degreeC (reference value: 1 ug/ml); format: functional
Staphylococcus aureus [31] = experiment: Antibiofilm activity against Staphylococcus aureus CGMCC1.8721 at 4 times MIC by crystal violet staining based analysis relative to control; format: functional
Staphylococcus aureus [32] = experiment: Induction of inner membrane permeability in Staphylococcus aureus CGMCC1.8721 assessed as increase in red fluorescence intensity by PI staining based analysis; format: functional, organism-based
Staphylococcus aureus [33] = experiment: Antibacterial activity against Staphylococcus aureus CGMCC1.8721 in presence of phosphatidylethanolamine; format: functional, organism-based
Staphylococcus aureus [34] = experiment: Antibacterial activity against Staphylococcus aureus CGMCC1.8721 in presence of phosphatidylcholine; format: functional, organism-based
Staphylococcus aureus [35] = experiment: Antibacterial activity against Staphylococcus aureus CGMCC1.8721 in presence of ATP; format: functional, organism-based
Staphylococcus aureus [36] = experiment: Antibacterial activity against Staphylococcus aureus CGMCC1.8721 in presence of dNTP; format: functional, organism-based
Staphylococcus aureus [37] = experiment: Induction of morphological change in Staphylococcus aureus CGMCC1.8721 assessed as appearance of atrophy at MIC by […] SEM analysis; format: functional, organism-based
Staphylococcus aureus [38] = experiment: Induction of morphological change in Staphylococcus aureus CGMCC1.8721 assessed as depression of cell surface at 4 times MIC by […] SEM analysis; format: functional, organism-based
Staphylococcus aureus [39] = experiment: Antibacterial activity against methicillin-resistant Staphylococcus aureus CGMCC1.12409 infected in mouse model assessed as reduction in abscesses size at 5 to 10 mg/kg measured for 5 days; format: functional, organism-based; settings: dose 5-10 mg/kg, time 5.0 day
Staphylococcus aureus [40] = experiment: Antibacterial activity against methicillin-resistant Staphylococcus aureus CGMCC1.12409 infected in mouse model assessed as reduction in bacterial clones at 5 to 10 mg/kg measured for 5 days; format: functional, organism-based; settings: dose 5-10 mg/kg, time 5.0 day
Staphylococcus aureus [41] = experiment: Antibacterial activity against methicillin-resistant Staphylococcus aureus CGMCC1.12409 infected in mouse model assessed as reduction in bacterial load at infection site at 10 mg/kg measured for 5 days relative to control; format: functional; design: scale not given: the % may be the effect or the level left; settings: time 5 day
Staphylococcus aureus [42] = experiment: Antibacterial activity against methicillin-resistant Staphylococcus aureus CGMCC1.12409 infected in mouse model assessed as smooth dorsal skin at 10 mg/kg measured for 5 days; format: functional, organism-based; settings: route sc, time 5.0 day
Staphylococcus aureus [43] = experiment: Antibacterial activity against methicillin-resistant Staphylococcus aureus CGMCC1.12409 infected in mouse model assessed as reduction in inflammation in skin tissues at 5 to 10 mg/kg measured for 5 days by H and E staining based analysis; format: functional, organism-based; settings: dose 5-10 mg/kg, time 5.0 day

Q: With `COc1ccc2[nH]c3c(CC[C@H](C)[C@H]4CC[C@H]5[C@@H]6[C@H](O)C[C@@H]7C[C@H](O)CC[C@]7(C)[C@H]6C[C@H](O)[C@]45C)[n+](Cc4ccc(Cl)cc4)ccc3c2c1.[Br-]` as the compound, how does the MIC (Staphylococcus aureus [1]) read?
A: 0.5 µg/mL

Q: And the MIC (Staphylococcus aureus [2])?
A: 0.5 µg/mL

Q: And the MBC (Staphylococcus aureus [3])?
A: 1 µg/mL

Q: And the MBC (Staphylococcus aureus [4])?
A: 2 µg/mL

Q: And the Activity (HeLa)?
A: Non-toxic

Q: And the HC50 [5]?
A: > 256 µg/mL

Q: And the Activity (Staphylococcus aureus [6])?
A: 100%

Q: What about the Activity (Staphylococcus aureus [7]) of the same compound?
A: Not active; Compound Activity Was Higher Than That Of Vancomycin

Q: What about the MIC (Staphylococcus aureus [8]) of the same compound?
A: 0.5 µg/mL

Q: And the MIC (Staphylococcus aureus [9])?
A: 0.5 µg/mL

Q: And the MIC (Staphylococcus aureus [10])?
A: 0.5 µg/mL

Q: And the MIC (Staphylococcus aureus [11])?
A: 0.5 µg/mL

Q: And the MIC (Staphylococcus aureus [12])?
A: 0.5 µg/mL

Q: And the MIC (Staphylococcus aureus [13])?
A: 0.5 µg/mL

Q: And the MIC (Staphylococcus aureus [14])?
A: 0.5 µg/mL

Q: And the MIC (Staphylococcus aureus [15])?
A: 0.5 µg/mL

Q: And the MIC (Staphylococcus aureus [16])?
A: 0.5 µg/mL

Q: And the MIC (Staphylococcus aureus [17])?
A: 0.5 µg/mL

Q: And the MIC (Staphylococcus aureus [18])?
A: 0.5 µg/mL

Q: What about the MIC (Staphylococcus aureus [19]) of the same compound?
A: 0.5 µg/mL

Q: And the MIC (Staphylococcus aureus [20])?
A: 1 µg/mL

Q: And the MIC (Staphylococcus aureus [21])?
A: 1 µg/mL

Q: And the MIC (Staphylococcus aureus [22])?
A: 1 µg/mL

Q: What about the MIC (Staphylococcus aureus [23]) of the same compound?
A: 1 µg/mL

Q: What about the MIC (Staphylococcus aureus [24]) of the same compound?
A: 1 µg/mL

Q: What about the MIC (Staphylococcus aureus [25]) of the same compound?
A: 1 µg/mL

Q: And the MIC (Staphylococcus aureus [26])?
A: 1 µg/mL

Q: What about the MIC (Staphylococcus aureus [27]) of the same compound?
A: 1 µg/mL

Q: And the MIC (Staphylococcus aureus [28])?
A: 1 µg/mL

Q: And the MIC (Staphylococcus aureus [29])?
A: 1 µg/mL

Q: What about the MIC (Staphylococcus aureus [30]) of the same compound?
A: 1 µg/mL

Q: And the Activity (Staphylococcus aureus [31])?
A: ~87%

Q: What about the Activity (Staphylococcus aureus [32]) of the same compound?
A: Dose-dependent-effect

Q: What about the Activity (Staphylococcus aureus [33]) of the same compound?
A: Active

Q: What about the Activity (Staphylococcus aureus [34]) of the same compound?
A: Active

Q: And the Activity (Staphylococcus aureus [35])?
A: Active

Q: And the Activity (Staphylococcus aureus [36])?
A: Active

Q: And the Activity (Staphylococcus aureus [37])?
A: Active

Q: What about the Activity (Staphylococcus aureus [38]) of the same compound?
A: Active

Q: What about the Activity (Staphylococcus aureus [39]) of the same compound?
A: Active

Q: And the Activity (Staphylococcus aureus [40])?
A: Active

Q: What about the Activity (Staphylococcus aureus [41]) of the same compound?
A: 98.55%

Q: And the Activity (Staphylococcus aureus [42])?
A: Active

Q: What about the Activity (Staphylococcus aureus [43]) of the same compound?
A: Active
